This experiment addresses T1, Human AhR (Homo sapiens, UniProt P35869).
T1 construct: expressed in transfected cells
T1 sequence (P35869 11-848): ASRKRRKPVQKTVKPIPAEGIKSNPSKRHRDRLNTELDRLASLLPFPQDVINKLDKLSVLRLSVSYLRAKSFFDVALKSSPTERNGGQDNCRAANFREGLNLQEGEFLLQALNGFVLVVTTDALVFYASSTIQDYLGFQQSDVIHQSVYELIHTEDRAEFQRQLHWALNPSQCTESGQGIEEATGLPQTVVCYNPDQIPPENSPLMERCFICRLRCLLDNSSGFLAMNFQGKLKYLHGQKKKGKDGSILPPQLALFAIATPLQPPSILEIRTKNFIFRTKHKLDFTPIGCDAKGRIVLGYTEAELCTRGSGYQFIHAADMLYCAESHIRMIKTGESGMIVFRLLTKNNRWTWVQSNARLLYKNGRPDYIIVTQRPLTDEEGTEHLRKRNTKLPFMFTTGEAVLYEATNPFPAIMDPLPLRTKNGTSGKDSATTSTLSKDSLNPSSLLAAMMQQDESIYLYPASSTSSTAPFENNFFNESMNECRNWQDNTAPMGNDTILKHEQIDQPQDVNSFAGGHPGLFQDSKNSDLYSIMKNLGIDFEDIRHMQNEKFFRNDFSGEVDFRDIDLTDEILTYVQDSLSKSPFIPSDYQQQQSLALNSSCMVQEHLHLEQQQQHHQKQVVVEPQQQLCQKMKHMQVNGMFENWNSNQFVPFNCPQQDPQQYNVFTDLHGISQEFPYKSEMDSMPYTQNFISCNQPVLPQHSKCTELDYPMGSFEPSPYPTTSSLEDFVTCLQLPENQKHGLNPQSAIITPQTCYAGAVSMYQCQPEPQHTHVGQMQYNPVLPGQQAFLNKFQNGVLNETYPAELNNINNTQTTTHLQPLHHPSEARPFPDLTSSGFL
Kind of experiment: hAHR Nuclear Translocation Assay. The class given is cell-based. To be noted: AhR-EGFP nuclear translocation in Jump-In T-REx HEK293 cells, 45 minutes incubation, read-out: Rel EC50. The text has this:
The purpose of this assay is to measure the ability of compounds to bind to, activate, and induce the translocation of AhR into the nucleus of a cell for transcription. Stable cell lines were established using Jump-InTM T-RExTM HEK293 Retargeting Kit (Life Technologies). Human AhR cDNA was cloned into the pJTI R4 CMV-TO EGFP vector. The EGFP was cloned to the C-terminal of AHR to form AhR-EGFP chimera. The pJTI R4 CMV-TO AhR-EGFP vector was transfected using FuGENE® HD into Jump-InTM T-RExTM HEK293 cells. Transfected cells were selected using 2.5 mg/ml G418 for 10 to 14 days, then expanded, harvested, and suspended in freeze media (FBS with 8% DMSO) at 2×10^7 cells/ml, and aliquots were stored in liquid nitrogen. One day before the assay date, cells were thawed and resuspended in DMEM with 5% FBS in the presence of 1 μg/ml Doxycycline and plated into ploy-L-Lysine coated […]-384 ULTRA Microplates (Perkin Elmer) at 12,000 to 15,000 cells per well and incubated at 37° C. and 5% CO2 overnight. On the assay date, compound was serially diluted (1:2) into 384-well nunc plates with DMSO using acoustic dispensing (ECHO®). The dose response was a 20-point curve. […] The culture media was damped and 25 μl of DMEM plus 0.1% BSA was added, then 25 μL of compound in DMEM plus 0.1% BSA was added into cell plates. Cells were incubated compounds at 37° C. and 5% CO2 for 45 minutes. The final DMSO concentration was 0.2%. The media was damped after 45 minutes incubation. The cells were fixed with 40 μl of cold MeOH (-20° C.) for 20 minutes. The MeOH was damped and 50 μL of DPBS containing 1 μg/mL Hochst was added into the cell plates. The intensity of EGFP was quantitated by using Opera PHENIX® or OPERETTA® high content image system (Perkin Elmer) with 20× Water Objective and five field per well. The ratio of EGFP fluorescent intensity in nuclear over cytosol was analyzed using a 4-parameter nonlinear logistic equation to determine the potency of AhR agonists.

Structures are written as SMILES. pEC50: −log10 of the molar value. Read-outs that look alike come from different tables or passages of the source.

As usually defined, the pEC50 is the negative decadic logarithm of the EC50, by convention in mol/L. As to `CC1CCc2c1cc(C(=O)Nc1cnn(C)n1)c1nncn21` (single isomer, unassigned) [Example 61, 6-Methyl-N-(2-methyl-2H-1,2,3-triazol-4-yl)-7,8-dihydro-6H-cyclopenta[e][1,2,4] triazolo[4,3-a]pyridine-4-carboxamide], the pEC50 (class symbols) was 8.00 to 9.00.

As to `CC1CCc2c1cc(C(=O)Nc1cnn(C)n1)c1nncn21` (single isomer, unassigned) [Example 62, 6-Methyl-N-(2-methyl-2H-1,2,3-triazol-4-yl)-7,8-dihydro-6H-cyclopenta[e][1,2,4] triazolo[4,3-a]pyridine-4-carboxamide], the pEC50 (class symbols) is 7.30 to 8.00.

As for `CC1CCc2c1cc(C(=O)Nc1ccn(C)n1)c1nncn21` (single isomer, unassigned) [Example 63, 6-Methyl-N-(1-methyl-1H-pyrazol-3-yl)-7,8-dihydro-6H-cyclopenta[e][1,2,4] triazolo[4,3-a]pyridine-4-carboxamide], under “class symbols”, the pEC50 is 7.30 to 8.00.

For the compound `O=C(Nc1ncc(F)cn1)c1cc2c(n3cnnc13)CCC2C1CCC1` (single isomer, unassigned) [Example 64, 6-Cyclobutyl-N-(5-fluoropyrimidin-2-yl)-7,8-dihydro-6H-cyclopenta[e][1,2,4] triazolo[4,3-a]pyridine-4-carboxamide], the pEC50 (class symbols) was 8.00 to 9.00.

Regarding `O=C(Nc1ncc(F)cn1)c1cc2c(n3cnnc13)CCC2C1CCC1` (single isomer, unassigned) [Example 65, 6-Cyclobutyl-N-(5-fluoropyrimidin-2-yl)-7,8-dihydro-6H-cyclopenta[e][1,2,4] triazolo[4,3-a]pyridine-4-carboxamide], under “class symbols”, the pEC50 was 8.00 to 9.00.

Consider `O=C(Nc1ncc(F)cn1)c1cc2c(n3cnnc13)CCC2C1CC1` (single isomer, unassigned) [Example 66, 6-Cyclopropyl-N-(5-fluoropyrimidin-2-yl)-7,8-dihydro-6H-cyclopenta[e][1,2,4] triazolo[4,3-a]pyridine-4-carboxamide], for which the pEC50 (class symbols) was 8.00 to 9.00.

For `O=C(Nc1ncc(F)cn1)c1cc2c(n3cnnc13)CCC2C1CC1` (single isomer, unassigned) [Example 67, 6-Cyclopropyl-N-(5-fluoropyrimidin-2-yl)-7,8-dihydro-6H-cyclopenta[e][1,2,4] triazolo[4,3-a]pyridine-4-carboxamide], the pEC50 (class symbols) is 8.00 to 9.00.

Consider `CCCC1CCc2c1cc(C(=O)Nc1ncc(F)cn1)c1nncn21` (single isomer, unassigned) [Example 68, N-(5-Fluoropyrimidin-2-yl)-6-propyl-7,8-dihydro-6H-cyclopenta[e][1,2,4] triazolo[4,3-a]pyridine-4-carboxamide], for which, for the setting “class symbols”, the pEC50 was 7.30 to 8.00.

Consider `O=C(Nc1ncc(F)cn1)c1cc2ccccc2n2cnnc12` [Example 1, N-(5-Fluoropyrimidin-2-yl)-[1,2,4]triazolo[4,3-a]quinoline-4-carboxamide], for which the pEC50 (numeric values) was 8.51.

`O=C(Nc1ncc(F)cn1)c1cc2ccccc2n2ccnc12` [Example 2, N-(5-Fluoropyrimidin-2-yl)imidazo[1,2-a]quinoline-4-carboxamide]: the pEC50 (numeric values) is 9.23.

For the compound `C[C@H]1CCc2c1cc(C(=O)Nc1ncc(F)cn1)c1nncn21` [Example 5, (S)-N-(5-Fluoropyrimidin-2-yl)-6-methyl-7,8-dihydro-6H-cyclopenta[e][1,2,4]triazolo [4,3-a]pyridine-4-carboxamide], the pEC50 (numeric values) was 8.24.

Take `C[C@@H]1CCc2c1cc(C(=O)Nc1ncc(F)cn1)c1nncn21` [Example 6, (R)-N-(5-Fluoropyrimidin-2-yl)-6-methyl-7,8-dihydro-6H-cyclopenta[e][1,2,4]triazolo [4,3-a]pyridine-4-carboxamide]: for the setting “numeric values”, the pEC50 was 8.24.

Values taken from patent publication US20240199608A1 (Eli Lilly and Company, priority 2022, published 2024).
